Earlier results in patent US20040219231A1, “Production of concentrated biocidal solutions” (priority 2000, published 2004).

Assays:
[1] = not given; remark: listed apart in the source

SMILES	solubility in water	Vapor Pressure (25° C.) [1] [mm]
CC1(C)C(=O)N(Cl)C(=O)N1Br [BCDMH, 1,3-bromochloro-5,5-dimethylhydantoin]	around 0.15%	
BrBr [Bromine (Br2), Bromine]		214
ClBr [Bromine Chloride (BrCl), Bromine Chloride]		1800
